From ChEMBL document CHEMBL5104133, “Sortase A-mediated cyclization of novel polycyclic RGD peptides for ανβ3 integrin targeting” (Bioorg Med Chem Lett, 2022)

Columns and labels:
Integrin alpha-V/beta-3 [1] = biological target: T1, Integrin alpha-V/beta-3 (Homo sapiens, UniProt P05106+P06756); experiment: Inhibition of alphavbeta3 integrin receptor-mediated cell adhesion to fibrinogen in human SK-OV-3 cells […] integrin receptor; format: cell-based
Integrin alpha-V/beta-3 [2] = biological target: T1, Integrin alpha-V/beta-3; experiment: Inhibition of alphavbeta3 integrin receptor-mediated cell adhesion to fibrinogen in human HEK293 cells; format: cell-based
Integrin alpha-V/beta-5 = Integrin alpha-V/beta-5 (Homo sapiens, UniProt P06756+P18084); experiment: Inhibition of alphavbeta5 integrin receptor-mediated cell adhesion to vitronectin in human HT-29 cells; format: cell-based
Integrin alpha-V/beta-5, sequence (P06756 31-889 limits assumed): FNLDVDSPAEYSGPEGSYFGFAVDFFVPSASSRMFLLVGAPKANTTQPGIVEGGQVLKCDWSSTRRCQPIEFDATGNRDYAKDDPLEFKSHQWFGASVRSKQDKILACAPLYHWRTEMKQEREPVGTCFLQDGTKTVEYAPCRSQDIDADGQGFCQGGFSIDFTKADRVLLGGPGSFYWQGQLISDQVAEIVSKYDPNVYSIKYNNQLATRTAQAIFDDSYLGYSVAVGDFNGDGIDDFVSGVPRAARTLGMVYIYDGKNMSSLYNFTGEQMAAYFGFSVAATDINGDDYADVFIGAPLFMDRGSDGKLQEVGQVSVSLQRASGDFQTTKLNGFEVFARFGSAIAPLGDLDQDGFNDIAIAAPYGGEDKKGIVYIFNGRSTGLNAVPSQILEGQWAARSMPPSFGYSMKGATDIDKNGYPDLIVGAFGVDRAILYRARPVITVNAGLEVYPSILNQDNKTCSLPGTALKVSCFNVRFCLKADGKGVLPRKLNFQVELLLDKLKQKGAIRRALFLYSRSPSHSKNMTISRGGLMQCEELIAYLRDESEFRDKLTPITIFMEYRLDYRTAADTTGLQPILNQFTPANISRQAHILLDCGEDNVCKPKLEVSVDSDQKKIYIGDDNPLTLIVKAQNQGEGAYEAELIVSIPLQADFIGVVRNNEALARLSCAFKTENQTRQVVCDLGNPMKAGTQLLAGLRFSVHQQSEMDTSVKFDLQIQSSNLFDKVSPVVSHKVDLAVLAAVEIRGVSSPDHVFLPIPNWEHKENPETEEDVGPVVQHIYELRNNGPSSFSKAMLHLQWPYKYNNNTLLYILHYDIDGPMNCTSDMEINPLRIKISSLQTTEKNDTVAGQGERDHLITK
Integrin alpha-V/beta-5, sequence (P06756 891-1048 limits assumed): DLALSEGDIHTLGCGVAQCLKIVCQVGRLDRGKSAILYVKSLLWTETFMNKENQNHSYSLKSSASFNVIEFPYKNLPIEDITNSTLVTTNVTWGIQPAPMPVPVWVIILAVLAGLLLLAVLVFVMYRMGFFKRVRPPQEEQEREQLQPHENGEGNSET
Integrin alpha-V/beta-5, sequence (P18084 24-799 limits assumed): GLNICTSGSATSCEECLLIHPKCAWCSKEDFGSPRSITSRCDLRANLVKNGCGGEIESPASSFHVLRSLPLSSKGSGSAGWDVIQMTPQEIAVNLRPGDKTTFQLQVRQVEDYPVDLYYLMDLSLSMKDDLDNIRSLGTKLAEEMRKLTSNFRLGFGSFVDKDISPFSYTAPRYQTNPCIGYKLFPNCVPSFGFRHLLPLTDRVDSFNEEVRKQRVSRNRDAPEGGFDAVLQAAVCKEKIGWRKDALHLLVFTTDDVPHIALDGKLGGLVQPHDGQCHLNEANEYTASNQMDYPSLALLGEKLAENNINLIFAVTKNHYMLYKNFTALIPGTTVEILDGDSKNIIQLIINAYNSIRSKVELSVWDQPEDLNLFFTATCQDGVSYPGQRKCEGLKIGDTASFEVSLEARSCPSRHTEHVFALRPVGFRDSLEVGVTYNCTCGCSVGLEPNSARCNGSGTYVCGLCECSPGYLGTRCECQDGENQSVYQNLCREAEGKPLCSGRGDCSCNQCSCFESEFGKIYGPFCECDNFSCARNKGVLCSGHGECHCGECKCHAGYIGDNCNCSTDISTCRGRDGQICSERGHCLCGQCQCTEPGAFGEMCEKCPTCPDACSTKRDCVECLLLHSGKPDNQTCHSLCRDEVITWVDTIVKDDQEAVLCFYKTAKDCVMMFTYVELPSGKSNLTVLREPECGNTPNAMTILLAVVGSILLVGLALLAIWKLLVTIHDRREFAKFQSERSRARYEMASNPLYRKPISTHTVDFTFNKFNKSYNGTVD

Homo sapiens = organism: Homo sapiens; experiment: Selectivity ratio of IC50 for alphavbeta5 integrin receptor-mediated cell adhesion to vitronectin in human HT-29 cells to IC50 for alphavbeta3 integrin receptor-mediated cell adhesion to fibrinogen in human HEK293 cells; format: cell-based
[3] = biological target: Integrin alpha-IIb/beta-3 (Homo sapiens, UniProt P05106+P08514); experiment: Inhibition of alpha2bbeta3 integrin receptor expressed on human surface of platelets; format: cell-based, Platelet
Integrin alpha-IIb/beta-3, sequence (P05106 27-788 limits assumed): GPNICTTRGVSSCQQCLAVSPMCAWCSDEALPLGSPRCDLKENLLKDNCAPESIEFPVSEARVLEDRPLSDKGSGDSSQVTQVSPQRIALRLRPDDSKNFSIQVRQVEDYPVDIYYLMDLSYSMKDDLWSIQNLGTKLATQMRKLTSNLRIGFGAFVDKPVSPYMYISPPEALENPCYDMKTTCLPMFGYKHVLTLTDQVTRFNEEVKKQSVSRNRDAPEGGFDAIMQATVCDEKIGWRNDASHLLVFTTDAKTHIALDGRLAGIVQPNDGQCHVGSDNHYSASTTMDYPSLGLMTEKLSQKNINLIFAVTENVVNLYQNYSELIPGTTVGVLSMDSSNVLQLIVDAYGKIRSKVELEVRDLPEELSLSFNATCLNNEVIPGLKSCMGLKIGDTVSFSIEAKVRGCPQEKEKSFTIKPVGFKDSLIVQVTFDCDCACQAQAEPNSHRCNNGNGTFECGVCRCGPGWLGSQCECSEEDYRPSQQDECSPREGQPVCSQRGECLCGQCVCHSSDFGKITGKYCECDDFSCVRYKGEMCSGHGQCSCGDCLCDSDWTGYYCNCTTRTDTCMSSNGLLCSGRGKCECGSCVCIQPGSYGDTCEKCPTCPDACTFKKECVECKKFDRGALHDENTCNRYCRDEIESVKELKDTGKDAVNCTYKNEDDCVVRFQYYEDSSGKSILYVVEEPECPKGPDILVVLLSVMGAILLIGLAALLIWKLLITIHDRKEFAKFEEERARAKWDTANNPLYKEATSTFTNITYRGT
Integrin alpha-IIb/beta-3, sequence (P08514 32-887 limits assumed): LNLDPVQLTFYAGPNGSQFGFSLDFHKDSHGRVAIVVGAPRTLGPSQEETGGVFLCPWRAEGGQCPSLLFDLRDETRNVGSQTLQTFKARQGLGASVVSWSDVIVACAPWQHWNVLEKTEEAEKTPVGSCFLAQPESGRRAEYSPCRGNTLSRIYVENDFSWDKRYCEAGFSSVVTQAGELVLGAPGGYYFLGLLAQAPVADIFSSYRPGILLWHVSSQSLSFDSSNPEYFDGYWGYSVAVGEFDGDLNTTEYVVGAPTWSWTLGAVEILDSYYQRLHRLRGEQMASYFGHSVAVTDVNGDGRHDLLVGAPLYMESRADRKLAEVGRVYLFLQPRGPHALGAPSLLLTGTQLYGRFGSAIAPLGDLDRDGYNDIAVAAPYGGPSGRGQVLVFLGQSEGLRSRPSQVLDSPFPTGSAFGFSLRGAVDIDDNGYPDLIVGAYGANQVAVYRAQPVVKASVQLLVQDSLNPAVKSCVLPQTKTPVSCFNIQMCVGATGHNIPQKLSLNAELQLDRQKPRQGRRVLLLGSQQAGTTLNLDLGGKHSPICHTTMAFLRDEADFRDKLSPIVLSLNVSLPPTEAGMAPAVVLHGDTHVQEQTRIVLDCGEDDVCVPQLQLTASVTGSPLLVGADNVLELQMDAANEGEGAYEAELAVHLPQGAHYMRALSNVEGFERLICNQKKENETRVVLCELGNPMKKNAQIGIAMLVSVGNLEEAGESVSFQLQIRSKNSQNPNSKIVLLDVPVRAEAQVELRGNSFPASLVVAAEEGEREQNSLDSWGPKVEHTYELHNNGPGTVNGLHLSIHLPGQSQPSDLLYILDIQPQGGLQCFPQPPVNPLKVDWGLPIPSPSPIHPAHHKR
Integrin alpha-IIb/beta-3, sequence (P08514 891-1039 limits assumed): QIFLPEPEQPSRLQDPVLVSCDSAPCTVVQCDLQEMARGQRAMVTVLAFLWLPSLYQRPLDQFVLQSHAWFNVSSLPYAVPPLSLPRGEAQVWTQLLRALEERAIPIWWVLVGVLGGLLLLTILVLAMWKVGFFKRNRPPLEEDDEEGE

Integrin alpha-5/beta-1 = Integrin alpha-5/beta-1 (Homo sapiens, UniProt P05556+P08648); experiment: Inhibition of alpha5beta1 integrin receptor expressed on human surface of adipose tissue-derived stem cells; format: cell-based, Adipose tissue derived mesenchymal stem cell

T1 sequence (P05106 27-788 limits assumed): as the sequence (P05106 27-788 limits assumed) above
T1 sequence (P06756 31-889 limits assumed): as the sequence (P06756 31-889 limits assumed) above
T1 sequence (P06756 891-1048 limits assumed): as the sequence (P06756 891-1048 limits assumed) above

Row | IC50 (Integrin alpha-V/beta-3 [1]) [µM] | IC50 (Integrin alpha-V/beta-3 [2]) [µM] | IC50 (Integrin alpha-V/beta-5) [µM] | IC50 [3] [µM] | IC50 (Integrin alpha-5/beta-1) [µM] | Structure (SMILES) | Ratio IC50 (Homo sapiens)
1 | 25.1 | 0.2 | 30.2 | > 1 | 0.154 | CC(C)C[C@@H]1NC(=O)[C@@H]2CSCc3cc4cc(c3)CSC[C@H](NC(=O)[C@H](C(C)C)NC(=O)[C@@H](Cc3ccccc3)NC(=O)[C@H](CC(=O)O)NC(=O)CNC(=O)[C@H](CCCNC(=N)N)NC(=O)[C@H](CSC4)NC(=O)CNC(=O)CNC(=O)CNC(=O)[C@H]([C@H](C)O)NC(=O)[C@H](CCCCN)NC(=O)[C@@H]3CCCN3C1=O)C(=O)N[C@@H](CCCNC(=N)N)C(=O)NCC(=O)N[C@H](CC(=O)O)C(=O)N[C@H](Cc1ccccc1)C(=O)N[C@H](C(C)C)C(=O)N2 | 0.006
2 | 34 | 8.43 | 208 | > 1 | 0.154 | CC(C)C[C@@H]1NC(=O)[C@@H]2CSSC[C@@H]3NC(=O)[C@H](CSSC[C@H](NC(=O)[C@H](C(C)C)NC(=O)[C@@H](Cc4ccccc4)NC(=O)[C@H](CC(=O)O)NC(=O)CNC(=O)[C@H](CCCNC(=N)N)NC3=O)C(=O)N[C@@H](CCCNC(=N)N)C(=O)NCC(=O)N[C@@H](CC(=O)O)C(=O)N[C@H](Cc3ccccc3)C(=O)N[C@@H](C(C)C)C(=O)N2)NC(=O)CNC(=O)CNC(=O)[C@H]([C@@H](C)O)NC(=O)[C@H](CCCCN)NC(=O)[C@@H]2CCCN2C1=O | 0.041
